Test results published in US20140288077A1, “SUBSTITUTED 4-PHENOXYPHENOL ANALOGS AS MODULATORS OF PROLIFERATING CELL NUCLEAR ANTIGEN ACTIVITY” (ST. JUDE CHILDREN'S RESEARCH HOSPITAL, priority 2011, published 2014).
“And” between values parts separate entries of the source, which are not always exact repeats. Equal values may be shown once.

Assays:
U2OS cells [1] = experiment: Chromatin immunostaining of phospho(Ser33)RPA32; format: cell-based; conditions: 40 μM, 24 h, FIG. 26B
Protocol: The cells were fixed with 4% paraformaldehyde in PBS for 20 min at room temperature, rinsed three times with PBS for 5 min each, permeabilized with ice-cold methanol for 10 min at −20° C., and rinsed once with PBS for 5 min. The specimens were blocked with PBS containing 5% FBS and 0.03% Triton X-100 for 60 min, applied anti-PCNA antibody (1:3200) and anti-Polδ3 antibody (2.9 μg/ml) or anti-phospho(Ser^33)RPA32 antibody (4.0 μg/ml) in antibody buffer (PBS containing 1% FBS and 0.03% Triton X-100), incubated overnight in a humid chamber at 4° C., and rinsed with PBS three times for 5 min each at room temperature. The specimens were incubated with Alexa Fluor 555-conjugated goat anti-mouse IgG (Invitrogen) antibody (1:500) in the antibody buffer for 2 h in a humidified chamber at room temperature the dark, rinsed once with PBS for 5 min, incubated with Alexa Fluor 488-conjugated goat anti-rabbit IgG (Invitrogen) antibody (1:500) in the antibody buffer for 2 h in a humidified chamber at room temperature in the dark, and rinsed three times with PBS for 5 min. The coverslips were mounted VectaShield containing DAPI at 1 μg/ml (Vector Laboratories). Immunofluorescence imaging for chromatin was performed on a ClSi microscope (Nikon) with a Cascade 512B photomultiplier (Photometrics). Images were processed using EZC1 (Nikon) and Photoshop (Adobe) software. […]

XP2OS(SV40) cells = experiment: TLS assay in mammalian cultured cells with cisplatin-cross-linked Pt-GTG plasmid; format: cell-based; conditions: 5 μM of T2AA
Protocol: The cisplatin-modified plasmid was constructed, and the TLS assay was performed as previously described (14) with some modifications. Briefly, two oligonucleotides, [NT] and [NT], were annealed and inserted between the sites of EcoRV and EcoRI in pUCS[…]. The resultant plasmid was designated as pUCS[…]+ BglII. […] This oligonucleotide has the cross-link at the underlined site of [NT]. An unmodified 13-mer oligonucleotide was used for the construction of control plasmid. These oligonucleotides were purified with HPLC and PAGE. […] The gapped duplex plasmid was incubated with a 2-fold molar excess of the purified 13-mer oligonucleotide, which is complementary to the gap sequence except for a bulge in the middle in the presence of ATP (1 mM) and T4 DNA ligase (New England Biolabs, Ipswich, MA) at 16° C. for 6 min. The covalently closed circle plasmid was purified with equilibrium centrifugation on a CsCl gradient. The plasmids with and without the cisplatin adduct are hereafter referred to as Pt-GTG and Mock-GTG, respectively. […] The plasmids were extracted from the cells by using the QIAprep spin miniprep kit (Qiagen), digested with the restriction endonuclease DpnI (New England Biolabs) to remove the unreplicated plasmids, and introduced into Escherichia coli strain DH5α. The E. coli was plated onto LB agar plates containing ampicillin, X-gal, and isopropyl-β-D-thioga-lactopyranoside. […] Therefore, TLS frequency (%) was defined as (number of blue colonies/number of total colonies)×100.

HeLa cells = experiment: Immunostaining of phospho-Chk1 and γH2AX (DNA replication stress); format: cell-based; conditions: 4 h, FIG. 26A
cells [2] = experiment: Cell cycle analysis by flow cytometry (PI); format: cell-based; conditions: 20 μM, 24 h, FIG. 25E
U2OS cells [3] = experiment: DNA replication assay (BrdU incorporation); format: cell-based; conditions: titration of compound, 24 h, FIG. 25A-C
Protocol: DNA replication in U2OS and/or HeLa cells were analyzed by the rates of bromodeoxyuridine (BrdU) incorporation by a method reported previously (Taddei, A., et al. (1999) J. Cell Biol. 147, 1153-1166.). For immunofluorescence, cells were propagated at a subconfluent density onto a coverslip in a 6-well culture plate the day before the assay. […] During the last 15 min in the incubation period, BrdU was added at a concentration of 10 μM. Cells were washed with PBS and fixed with 4% paraformaldehyde in PBS for 15 min at room temperature. After permeabilization with 0.2% Triton X-100 in PBS for 15 min, cells were treated with 4N hydrochloric acid for 10 min and extensively rinsed with PBS. After blocking cells with 3% FBS in PBS for 20 min, anti-BrdU monoclonal antibody (1 μg/ml; clone 44, BD Pharmingen) was added to the cells and incubated at room temperature for 1 h. Cells were rinsed with PBS three times for 5 min each. Antimouse IgG conjugated with Alexa Fluor 555 (Invitrogen) was added and incubated at room temperature for 30 min. […] Fluorescence microscopy was done on an E800 microscope (Nikon) with a DXM1120 digital camera (Nikon). […] For quantitative analyses, BrdU incorporation was measured with the APC BrdU Flow Kit (BD Pharmingen) following the manufacturer's instructions. […] The populations of BrdU-positive cells (a) and mean BrdU intensity in S-phase cells (b) were recorded. […]

Polδ3 = experiment: Immunoblotting for Polδ3 in whole cell lysates; format: cell-based; conditions: U2OS cells, FIG. 24B
Protocol: The cells treated as indicated were washed twice with ice-cold PBS, collected in a spin tube, and lysed with radioimmune precipitation assay buffer supplemented with Halt protease inhibitor mixture and Halt phosphatase inhibitor mixture (Thermo Scientific) using approximately twice the volume of the cell pellet on ice for 0.5 h. Protein concentration was determined by a BCA assay (Thermo Scientific) according to the manufacturer's recommendation. Normalized amounts of samples were loaded on SDS-PAGE as indicated and electrotransferred to a PVDF membrane. The membrane was blocked with SuperBlock buffer (Thermo Scientific) and incubated with the indicated primary antibodies in SuperBlock at 4° C. overnight, rinsed with TBS, 0.05% Tween 20 three times for 10 min, incubated with the corresponding secondary IgG-HRP conjugate in SuperBlock at room temperature for 1 h, and rinsed with TBS, 0.05% Tween 20 for 15 min. Proteins probed on the membrane were visualized by chemiluminescence using WestPico reagent (Thermo Scientific) and developed on BioMax MR film (Eastman Kodak Co.).

U2OS cells [4] = experiment: γH2AX staining by flow cytometry, T2AA and cisplatin; conditions: 18 h, FIG. 28A
Protocol: For γH2AX staining, cells were cultured at 4×10^5 cells/well of 12-well plates in 1 ml of medium, treated with drugs as indicated, trypsin-lifted and stained by using the FlowCellect H2A.X DNA Damage kit (FCCH025142, Millipore) according to the manufacturer's recommendations. All samples were filtered through 40-μm nylon mesh prior to running flow cytometry.
NT, no treatment. Error bars, S.D.

cells [5] = experiment: Apoptosis analysis by flow cytometry (Annexin-V and PI); format: cell-based; set-up: dose or concentration left out as unconfirmed; conditions: 5 days, FIG. 25G
U2OS cells [6] = experiment: Growth of cells after treatment with cisplatin and T2AA and release (Alamar Blue); conditions: 18 h, then 3 days drug-free, FIG. 28B
Protocol: The cells were treated with drugs as indicated in a black (transparent flat bottom) 384-well or 96-well plate. Cellular viability was determined by using Alamar Blue reagent (Invitrogen) on an EnVision plate reader according to the manufacturer's recommendations and normalized with signal from wells of DMSO treatment=100% and of no cells=0%.
Viability of the cells was measured by Alamar Blue reagent, and signals were normalized with those of no cell well (0%) and cells with no drugs (100%). NT, no treatment. Error bars, S.D.

N[C@H](CO)Cc1cc(I)c(Oc2ccc(O)cc2)c(I)c1 [Compound T2AA]
immunofluorescence of phospho-RPA32 in nuclei (U2OS cells [1]): increased
Mock GTG plasmid Raito (%) blue/total, Total/Average (XP2OS(SV40) cells): 36.9 (100) %
Pt-GTG plasmid Raito (%) blue/total, Total/Average (XP2OS(SV40) cells): 5.3 (14.2) %
Mock GTG plasmid Raito (%) blue/total (XP2OS(SV40) cells; single experiments): 36.0% and 34.5% and 41.0% and 37.9% and 38.1% and 34.2%
phosphorylation of Chk1 and H2AX (HeLa cells): phosphorylated
cell cycle (cells [2]): arrested cells at S-phase
BrdU incorporation (U2OS cells [3]): inhibited the BrdU incorporation significantly in a dose-dependent manner
expression of Polδ3 protein in whole cell lysate (Polδ3): not reduced
γH2AX level (DNA damage response) (U2OS cells [4]; T2AA and cisplatin together): further increased much higher than the level combined from each single treatment
γH2AX level (DNA damage response) (U2OS cells [4]; single agent): induced γH2AX only a little
apoptosis (Annexin-V / PI) (cells [5]): increased cellular populations in early apoptosis but not necrosis
reduction of U2OS cell growth (U2OS cells [6]; 10 μM T2AA alone): less than 10%
U2OS cell growth (U2OS cells [6]; cisplatin and T2AA together): significantly reduced
